Key:
Type in all cases: in vitro ADME
[1] = Metabolic stability in human liver microsomes; settings: 37° C., 0-60 minutes
Experimental: This example illustrates the metabolic stability of selected compounds in human liver microsomes samples.
Both test and control compound solutions were prepared by diluting 5 μL of the respective stock solutions (10 mM in DMSO) containing either the test or control compound with 495 μL of acetonitrile (ACN) to give intermediate solutions with concentrations of 100 μM (99% ACN).
β-Nicotinamide adenine dinucleotide phosphate tetrasodium salt (NADPH.4Na) was purchased from BONTAC (cat. No. BT04). The NADPH working solution (10 unit/mL) was prepared by combining the appropriate amount of NADPH powder and a MgCl2 solution (10 mM) to give final concentration in the reaction system of 1 unit/mL.
The appropriate concentrations of the microsome working solutions were prepared in 100 mM potassium phosphate buffer.
Cold (4° C.) acetonitrile solution containing 200 ng/mL tolbutamide and 200 ng/mL labetalol (internal standard) was used as the stop solution.
Liver microsomes solution was diluted to 0.56 mg/mL in 100 mM phosphate buffer, and 445 μL of this solution was transferred into pre-warmed (10 minutes) “incubation” plates T60 and NCF60; the “incubation” plates T60 and NCF60 were pre-warmed for 10 minutes at 37° C. with constant shaking.
54 μL of the liver microsome solutions was transferred to the blank plate, followed by addition of 6 μL of the NAPDH cofactor solution and 180 μL of the quenching solution to the same blank plate.
5 μL of the compound working solution (100 μM concentration) was next added to into the “incubation” plates (T60 and NCF60) containing microsomes and mixed 3 times thoroughly. For the NCF60 plate, 50 μL of the buffer solution was added, mixed 3 times thoroughly, and incubated at 37° C. for 60 minutes under constant shaking.
In the “Quenching” plate at T0 (T=0 min), 180 μL of quenching solution and 6 μL of the NAPDH cofactor solution were added, and the resulting plate was chilled to prevent evaporation.
In the T60 plate, after it was thoroughly mixed, 54 μL of the mixture was immediately transferred to the “quenching” plate for the 0-minute time point, followed by addition of 44 μL of NAPDH cofactor solution to the incubation plate (T60). The resulting mixture was then incubated at 37° C. for 60 minutes under constant shaking. At time points of 5, 10, 20, 30 and 60 minutes, 180 μL of the quenching solution was added to the “quenching” plates, followed by serial transfer of 60 μL of the mixture (per time point) from the T60 plate to the “Quenching” plates.
For the NCF60 plates, 60 μL of the sample solution was transferred from the NCF60 incubation plate to the “Quenching” plate containing quenching solution at T=60 min time point. […]

human plasma proteins = assay: Plasma protein binding assay (equilibrium dialysis); settings: 2 μM, dialysis 4 hours at 37° C.
Experimental: (§1) The dialysis device used in this example is a 96-well equilibrium dialysis plate (Cat #1006, HT Dialysis LLC, Gales Gerry, CT), and HTD 96 a/b dialysis membrane strips (Cat #1101, MWCO 12-14 kDa, HT Dialysis LLC). The dialysis device was assembled following the manufacturer's instructions.
(§2) The dialysis membrane strips were soaked in ultra-pure water at room temperature for approximately 1 hour. Each membrane strip containing 2 membranes was separated and soaked in 20:80 ethanol/water (v/v) for approximately 20 minutes, after which they were ready for used or were stored in the solution at 2-8° C. for up to a month. Prior to experiment, the membrane was rinsed and soaked for 20 minutes in ultra-pure water.
(§3) On the day of the experiment, the plasma was thawed by running under col tap water and centrifuged at 3220 rpm for 5 minutes to remove any clos. The pH value of the resulting plasma was checked. Only plasma with pH value with 7.0-8.0 could be used.
(§4) Both test and control compounds were dissolved in DMSO to achieve 10 mM stock solutions. Working solutions (400 μM) if test and control compounds were prepared by diluting 10μ of stock solutions with 240 μL of DMSO. Loading matrix solutions (2 μM) of both test and control compounds were prepared by diluting 5 μL of working solutions with 995 μL of blank matrix.
(§5) To prepare the loading matrix containing the test compound or control compounds, aliquots of either test compound working solutions or control compound working solution were spiked into blank matrix to achieve final test concentrations. The concentration of organic solvent in the final solutions were no more than 1% (normally 0.5%). The samples were mixture thoroughly before being used.
(§6) To prepare the time zero (T0) samples to be used for recovery determinations. 50 μL aliquots of loading matrix solution were transferred in triplicate to the sample collection plate. The samples were immediately matched with opposite blank buffer to obtain a final volume of 100 μL of 1:1 matrix/dialysis buffer (v/v) in each well. 500 μL of stop solution were added to these T0 samples. They were then stored at 2-8° C. pending further processes along with other post-dialysis samples.
(§7) To load the dialysis device, an aliquot of 150 μL of the loading matrix was transferred to the donor side of each dialysis well in triplicate, and 150 μL of the dialysis buffer was loaded to the received side of the well. The dialysis was placed in humidified incubator at 37° C. with 5% CO2 on a shaking platform that rated slowly (about 100 rpm) for 4 hours.
(§8) At the end of the dialysis, aliquots of 50 μL of samples were taken from both the buffer side and the matrix side of the dialysis deice. These samples were transferred into new 96-well plates (the sample collection plates). Each sample was mixed with an equal volume of opposite blank matrix (buffer or matrix) to reach a final volume of 100 μL of 1:1 matrix/dialysis buffer (v/v) in each well. All samples were further processed by adding 500 μL of stop solution containing internal standards. The mixture was vortexed and centrifuged at 4000 rpm for about 20 minutes. An aliquot of 100 μL of supernatant of all the samples were then removed for LC-MS/MS analysis.
(§9) The single blank samples were prepared by transferring 50 μL of blank matrix to a 96 well plate and adding 50 μL of blank PBS buffer to each well. The blank plasma must match the species of plasma used in the plasma side of the well. Then the matrix-matched samples were further processed by adding 500 μL of stop solution containing internal standards, following the same sample processing method as the dialysis samples.

[2] = as above; settings: human plasma, dialysis 4 hours at 37° C.
Experimental: as §1, §2, §3, §4, §5, §6, §7, §8, §9

Row | Compound | CLint scaled at 1 µM [1] | % Bound (human plasma proteins) | fraction unbound at 4 h, 2 µM [2]
1 | CCCc1nn(C)c2c(=O)[nH]c(-c3cc(S(=O)(=O)N4CC(CCCO)C4)ccc3OCC)nc12 [Compound 4, 5-(2-ethoxy-5-((3-(3-hydroxypropyl)azetidin-1-yl)sulfonyl)phenyl)-1-methyl-3-propyl-1,6-dihydro-7H-pyrazolo[4,3-d]pyrimidin-7-one] | 21.4 L/h/kg | 96.01% | 0.0399
2 | CCCc1nn(C)c2c(=O)[nH]c(-c3cc(S(=O)(=O)N4CC(CCCO[N+](=O)[O-])C4)ccc3OCC)nc12 [Compound 18, 3-(1-((4-ethoxy-3-(1-methyl-7-oxo-3-propyl-6,7-dihydro-1H-pyrazolo[4,3-d]pyrimidin-5-yl)phenyl)sulfonyl)azetidin-3-yl)propyl nitrate] | 56.1 L/h/kg | 99.52% | 0.0048
